Laboratory results as given in ChEMBL document CHEMBL3885881, “DrugMatrix”.

Species on record: Rattus norvegicus
Experiment: DrugMatrix - Regimen: Daily Repeat
Type: toxicity, organism-based, Sprague-Dawley
Parameters: regimen Daily Repeat, gender Male, age 6-8 weeks
Conditions: in vivo, po, route oral GAVAGE, vehicle 100 % WATER; for ABSOLUTE BASOPHIL / ABSOLUTE EOSINOPHIL / ABSOLUTE LYMPHOCYTE / ABSOLUTE MONOCYTE / ABSOLUTE SEGMENTED NEUTROPHIL / BASOPHIL / EOSINOPHIL / ERYTHROCYTE COUNT / HEMATOCRIT / HEMOGLOBIN / LEUKOCYTE COUNT / LYMPHOCYTE / MEAN CORPUSCULAR HEMOGLOBIN / MEAN CORPUSCULAR HEMOGLOBIN CONCENTRATION / MEAN CORPUSCULAR VOLUME / MONOCYTE / NEUTROPHIL / NUCLEATED RED BLOOD CELLS / PLATELET COUNT: tissue Blood; for ALANINE AMINOTRANSFERASE / ALBUMIN / ALKALINE PHOSPHATASE / ASPARTATE AMINOTRANSFERASE / BLOOD UREA NITROGEN / CARBON DIOXIDE / CHLORIDE / CHOLESTEROL / CREATINE PHOSPHOKINASE / CREATININE / GLUCOSE / LACTATE DEHYDROGENASE / LIPASE / PHOSPHORUS / POTASSIUM / SODIUM / TOTAL BILIRUBIN / TOTAL PROTEIN / URIC ACID: tissue Plasma
[1] = 39 mg/kg, 120 h, dose level Low, time 5 day
[2] = 150 mg/kg, 72 h, dose level High, time 3 day
[3] = 150 mg/kg, 120 h, dose level High, time 5 day

SMILES: C[C@]12Cc3c[nH]nc3C[C@@H]1CC[C@@H]1[C@@H]2CC[C@@]2(C)[C@H]1CC[C@]2(C)O [STANOZOLOL]
- ABSOLUTE BASOPHIL [1]: 0 CELLS/uL
- ABSOLUTE EOSINOPHIL [1]: 55.33 CELLS/uL
- ABSOLUTE LYMPHOCYTE [1]: 11411 CELLS/uL
- ABSOLUTE MONOCYTE [1]: 142 CELLS/uL
- ABSOLUTE SEGMENTED NEUTROPHIL [1]: 1025 CELLS/uL
- BASOPHIL [1]: 0%
- EOSINOPHIL [1]: 0.33%
- ERYTHROCYTE COUNT [1]: 5.64 x10E6/uL
- HEMATOCRIT [1]: 35.63%
- HEMOGLOBIN [1]: 13.63 G/DL
- LEUKOCYTE COUNT [1]: 12.63 x10E3/uL
- LYMPHOCYTE [1]: 90.33%
- MEAN CORPUSCULAR HEMOGLOBIN [1]: 24.33 pg
- MEAN CORPUSCULAR HEMOGLOBIN CONCENTRATION [1]: 38.33 G/DL
- MEAN CORPUSCULAR VOLUME [1]: 63.43 fL
- MONOCYTE [1]: 1.33%
- NEUTROPHIL [1]: 8%
- NUCLEATED RED BLOOD CELLS [1]: 0.67 /100WBC
- PLATELET COUNT [1]: 1199.33 x10E3/uL
- ALANINE AMINOTRANSFERASE [1]: 55.67 u/L
- ALBUMIN [1]: 3.87 G/DL
- ALKALINE PHOSPHATASE [1]: 492.33 u/L
- ASPARTATE AMINOTRANSFERASE [1]: 81.67 u/L
- BLOOD UREA NITROGEN [1]: 13.33 mg/dL
- CARBON DIOXIDE [1]: 32.67 mmol/L
- CHLORIDE [1]: 98.67 MEQ/L
- CHOLESTEROL [1]: 35 mg/dL
- CREATINE PHOSPHOKINASE [1]: 259.67 u/L
- CREATININE [1]: 0.16 mg/dL
- GLUCOSE [1]: 144 mg/dL
- LACTATE DEHYDROGENASE [1]: 113 u/L
- LIPASE [1]: 8 u/L
- PHOSPHORUS [1]: 10.33 mg/dL
- POTASSIUM [1]: 5.69 MEQ/L
- SODIUM [1]: 144.47 MEQ/L
- TOTAL BILIRUBIN [1]: 0.2 mg/dL
- TOTAL PROTEIN [1]: 6.07 G/DL
- URIC ACID [1]: 0.33 mg/dL
- ABSOLUTE BASOPHIL [2]: 0 CELLS/uL
- ABSOLUTE EOSINOPHIL [2]: 39.67 CELLS/uL
- ABSOLUTE LYMPHOCYTE [2]: 9030.67 CELLS/uL
- ABSOLUTE MONOCYTE [2]: 107.33 CELLS/uL
- ABSOLUTE SEGMENTED NEUTROPHIL [2]: 755.67 CELLS/uL
- BASOPHIL [2]: 0%
- EOSINOPHIL [2]: 0.33%
- ERYTHROCYTE COUNT [2]: 6.43 x10E6/uL
- HEMATOCRIT [2]: 39.27%
- HEMOGLOBIN [2]: 14.53 G/DL
- LEUKOCYTE COUNT [2]: 9.93 x10E3/uL
- LYMPHOCYTE [2]: 91%
- MEAN CORPUSCULAR HEMOGLOBIN [2]: 22.63 pg
- MEAN CORPUSCULAR HEMOGLOBIN CONCENTRATION [2]: 37.07 G/DL
- MEAN CORPUSCULAR VOLUME [2]: 61.07 fL
- MONOCYTE [2]: 1%
- NEUTROPHIL [2]: 7.67%
- NUCLEATED RED BLOOD CELLS [2]: 0.33 /100WBC
- PLATELET COUNT [2]: 951 x10E3/uL
- ALANINE AMINOTRANSFERASE [2]: 74 u/L
- ALBUMIN [2]: 4.1 G/DL
- ALKALINE PHOSPHATASE [2]: 493.67 u/L
- ASPARTATE AMINOTRANSFERASE [2]: 138.33 u/L
- BLOOD UREA NITROGEN [2]: 12.67 mg/dL
- CARBON DIOXIDE [2]: 34.33 mmol/L
- CHLORIDE [2]: 96.5 MEQ/L
- CHOLESTEROL [2]: 46.67 mg/dL
- CREATINE PHOSPHOKINASE [2]: 1177 u/L
- CREATININE [2]: 0.14 mg/dL
- GLUCOSE [2]: 134.33 mg/dL
- LACTATE DEHYDROGENASE [2]: 200 u/L
- LIPASE [2]: 11 u/L
- PHOSPHORUS [2]: 11.53 mg/dL
- POTASSIUM [2]: 6.12 MEQ/L
- SODIUM [2]: 142.35 MEQ/L
- TOTAL BILIRUBIN [2]: 0.33 mg/dL
- TOTAL PROTEIN [2]: 6.33 G/DL
- URIC ACID [2]: 0.5 mg/dL
- ABSOLUTE BASOPHIL [3]: 0 CELLS/uL
- ABSOLUTE EOSINOPHIL [3]: 31.33 CELLS/uL
- ABSOLUTE LYMPHOCYTE [3]: 9499.67 CELLS/uL
- ABSOLUTE MONOCYTE [3]: 0 CELLS/uL
- ABSOLUTE SEGMENTED NEUTROPHIL [3]: 1135.67 CELLS/uL
- BASOPHIL [3]: 0%
- EOSINOPHIL [3]: 0.33%
- ERYTHROCYTE COUNT [3]: 6.28 x10E6/uL
- HEMATOCRIT [3]: 37.87%
- HEMOGLOBIN [3]: 14.4 G/DL
- LEUKOCYTE COUNT [3]: 10.67 x10E3/uL
- LYMPHOCYTE [3]: 88.67%
- MEAN CORPUSCULAR HEMOGLOBIN [3]: 22.93 pg
- MEAN CORPUSCULAR HEMOGLOBIN CONCENTRATION [3]: 38.03 G/DL
- MEAN CORPUSCULAR VOLUME [3]: 60.33 fL
- MONOCYTE [3]: 0%
- NEUTROPHIL [3]: 11%
- NUCLEATED RED BLOOD CELLS [3]: 0 /100WBC
- PLATELET COUNT [3]: 1393.33 x10E3/uL
- ALANINE AMINOTRANSFERASE [3]: 46 u/L
- ALBUMIN [3]: 3.87 G/DL
- ALKALINE PHOSPHATASE [3]: 445.33 u/L
- ASPARTATE AMINOTRANSFERASE [3]: 64.67 u/L
- BLOOD UREA NITROGEN [3]: 16 mg/dL
- CARBON DIOXIDE [3]: 32.33 mmol/L
- CHLORIDE [3]: 99 MEQ/L
- CHOLESTEROL [3]: 12.33 mg/dL
- CREATINE PHOSPHOKINASE [3]: 238.67 u/L
- CREATININE [3]: 0.14 mg/dL
- GLUCOSE [3]: 131.33 mg/dL
- LACTATE DEHYDROGENASE [3]: 117.33 u/L
- LIPASE [3]: 7.67 u/L
- PHOSPHORUS [3]: 11.13 mg/dL
- POTASSIUM [3]: 5.01 MEQ/L
- SODIUM [3]: 144.1 MEQ/L
- TOTAL BILIRUBIN [3]: 0.1 mg/dL
- TOTAL PROTEIN [3]: 5.8 G/DL
- URIC ACID [3]: 0.3 mg/dL
